According to patent US8242128B2, “1,3-benzoxazolyl derivatives as kinase inhibitors” (Merck Patent GmbH, priority 2003, dated 2012):

Assays:
TIE-2 = TIE-2 (Homo sapiens, UniProt Q02763); assay: Inhibition of TIE-2 (flashplate kinase assay, poly(Glu, Tyr) phosphorylation, 33P-ATP); format: biochemical
Protocol: The TIE-2 tests can be carried out, for example, analogously to the methods indicated in WO 02/44156.
The assay determines the inhibiting activity of the substances to be tested in the phosphorylation of the substrate poly(Glu, Tyr) by Tie-2 kinase in the presence of radioactive ^33P-ATP. The phosphorylated substrate binds to the surface of a “flashplate” microtitre plate during the incubation time. After removal of the reaction mixture, the microtitre plate is washed a number of times and the radioactivity on its surface is subsequently measured. An inhibiting effect of the substances to be measured results in lower radioactivity compared with an undisturbed enzymatic reaction.

RAF = assay: Inhibition of RAF; format: biochemical

Chain of TIE-2 (Q02763 23-1124, species assumed): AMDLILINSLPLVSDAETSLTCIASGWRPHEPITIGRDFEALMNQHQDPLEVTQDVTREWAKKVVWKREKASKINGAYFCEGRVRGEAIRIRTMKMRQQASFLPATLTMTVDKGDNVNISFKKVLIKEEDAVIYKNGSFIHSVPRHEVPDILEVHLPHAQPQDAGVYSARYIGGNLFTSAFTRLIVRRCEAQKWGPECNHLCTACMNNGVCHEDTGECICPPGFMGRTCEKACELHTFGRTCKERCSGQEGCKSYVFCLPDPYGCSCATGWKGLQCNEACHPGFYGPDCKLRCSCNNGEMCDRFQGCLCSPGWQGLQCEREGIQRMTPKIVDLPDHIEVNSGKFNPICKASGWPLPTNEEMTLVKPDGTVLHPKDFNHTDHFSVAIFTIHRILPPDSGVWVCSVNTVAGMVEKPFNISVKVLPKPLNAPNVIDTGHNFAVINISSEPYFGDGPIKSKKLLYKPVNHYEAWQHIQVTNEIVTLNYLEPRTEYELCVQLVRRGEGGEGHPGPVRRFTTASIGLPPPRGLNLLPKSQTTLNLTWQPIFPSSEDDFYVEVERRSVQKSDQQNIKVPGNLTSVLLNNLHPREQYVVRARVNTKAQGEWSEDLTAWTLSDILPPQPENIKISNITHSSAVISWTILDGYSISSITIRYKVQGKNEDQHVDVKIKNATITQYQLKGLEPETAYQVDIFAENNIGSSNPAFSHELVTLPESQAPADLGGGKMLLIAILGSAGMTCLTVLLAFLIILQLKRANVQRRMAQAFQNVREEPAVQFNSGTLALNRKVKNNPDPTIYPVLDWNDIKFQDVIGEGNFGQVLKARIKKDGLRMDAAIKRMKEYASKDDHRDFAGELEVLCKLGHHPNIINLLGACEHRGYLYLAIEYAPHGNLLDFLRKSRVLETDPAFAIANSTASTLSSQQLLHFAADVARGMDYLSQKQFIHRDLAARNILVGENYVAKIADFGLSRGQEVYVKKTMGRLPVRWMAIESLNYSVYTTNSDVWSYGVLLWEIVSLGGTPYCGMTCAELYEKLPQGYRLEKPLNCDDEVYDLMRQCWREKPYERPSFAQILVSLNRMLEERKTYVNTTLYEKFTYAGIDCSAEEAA

Compound: O=[N+]([O-])c1cc(Cl)cc2nc(Nc3ccc(Sc4ccncc4)cc3)oc12 [(5-Chloro-7-nitrobenzoxazol-2-yl)-[4-(pyridin-4-ylsulfanyl)phenyl]amine]
- IC50 (TIE-2): 310 nM
- IC50 (RAF): > 1000 nM
